Values of other authors as cited in US20120076863A1, “NANOPARTICULATE STABILIZED ANTI-HYPERTENSIVE COMPOSITIONS” (Elan Pharma International Ltd., priority 2005, published 2012).
Structures can show the parent of a compound that is named as a salt.

What was measured:
[1] = active metabolite of temocapril

| solubility in water | excretion route [1] | Structure (SMILES) |
| --- | --- | --- |
| only slightly soluble |  | CCOC(=O)[C@H](CCc1ccccc1)N[C@H]1CS[C@H](c2cccs2)CN(CC(=O)O)C1=O [Temocapril hydrochloride, α-{(2S,6R)-6-[(1S)-1-ethoxy-carbonyl-3-phenyl-propyl]amino-5-oxo-2-(2-thienyl)perhydro-1,4-thiazepin-4yl}acetic acid hydrochloride] |
|  | excreted predominantly in bile | O=C(O)CN1C[C@@H](c2cccs2)SC[C@H](N[C@@H](CCc2ccccc2)C(=O)O)C1=O [temocaprilat] |
